Assay results: US20250297232A1, “BACTERIAL MYELOPEROXIDASE-CATALASE AND APPLICATIONS THEREOF” (UNIVERSITÉ DE BORDEAUX, priority 2022, published 2025)
Several values for one entry are separate records, joined by “and”; a condition that tells them apart may be missing. Identical values can stand only once. Like-named read-outs stand apart in the source and are kept apart here. Blank lines part the entries; values can stand above or below the molecule they belong to.

How the values were obtained:
[1] = test system: Rhodopirellula baltica RbMPO, wild type, SEQ ID NO: 1; settings: 0.5 nM wt RbMPO, 79 μM H2O2, 37° C., pH5.5
Description: The plate reader was configured to run a 10 min kinetics at 430 nm with the following ABTS concentration range: 0, 0.1, 0.2, 0.5, 1, 2, 5, 10, 15, 20, 30 and 40 mM.

[2] = biological target: Rhodopirellula baltica RbMPO, wild type, SEQ ID NO: 1; assay: Pre-steady-state kinetics: compound I formation and return to native state (stopped-flow, 412 nm); assay type: biochemical; settings: for Ki: H2O2 excess; for Vreturn (Sreturn/[enzyme]) / kreturn max (return to native state) / kreturn/K1/2 (return to native state): wt RbMPO […], H2O2 20 μM
Description: In the first moment after an enzyme is mixed with a substrate, no product has been formed and no intermediates exist. The study of the next few milliseconds of the reaction is called pre-steady-state kinetics.
Kinetic parameters under pre-steady-state condition were performed with a Biologic SFM400 stopped-flow at 412 nm, 37° C. and with 50 mM sodium phosphate buffer at pH7.5. […] An exponential linear fit was applied to each kinetic using the following formula: […]
where p1 corresponds to the exponential magnitude, p2 to the decay time Tau (s) and
The heme Soret band is at 412 nm for the native Fe^III iron form, which is why the decrease in absorbance was followed at this particular wavelength as a function of time. The rate constant was measured using the A412nm curves as a function of time (data not shown). By applying Eq.4 to the exponential part of each kinetic, the values of Tau (s) were determined and the kobs (s^−1) were calculated.
The return of the enzyme to its native state was studied by the impact of increasing concentrations of (pseudo)-halides substrates on compound I (FIG. 9B). […] It is the time difference (s) between the two characteristic steps that allowed the calculation of the values of the Vreturn(μM^−1.s^−1) values: […]

[3] = test system: Rhodopirellula baltica RbMPO variant D202A, E316A (of SEQ ID NO: 1)
Description: (§1) The chlorination activity of myeloperoxidases can be determined using the aminophenyl fluorescein (APF) probe. One can indeed detect the oxidation of APF (non-fluorescent) by HOCl into fluorescein, a fluorescent molecule that is detectable at λex=485 nm and λem=525 nm. According to such test, the fluorescence measured is proportional to the quantity of fluorescein, which itself is proportional to the quantity of HOCl produced by the myeloperoxidase.
(§2) Measurements of chlorination activity were herein performed in Corning 384-well clear-bottom (flat-bottom) plates with a reaction volume of 20 μL, in triplicate at 37° C., and in a 50 mM NaPi buffer at pH7.5. […] A 10 to 30 minutes kinetic was performed for each range value and the fluorescence intensity was compared to that of the standard fluorescein range. Thus, the measured fluorescence is proportional to the amount of fluorescein, which in turn is proportional to the amount of HOCl produced by the RbMPOs.
(§3) The slopes were measured at the onset of the reaction in order to be in initial velocity. From these values, it was possible to calculate the kss with the following equation: […]

[4] = test system: Rhodopirellula baltica RbMPO variant N317M (of SEQ ID NO: 1); settings: N317M 1 μM, H2O2 range, 500 mM NaCl, 10 μM APF, 37° C., pH7.5
Description: as §1, §2, §3

[5] = test system: Rhodopirellula baltica RbMPO, wild type, SEQ ID NO: 1; settings: 37° C.; for Km: read-out: KM (catalase, H2O2); for Ki: read-out: Ki (catalase, H2O2)
Description: Catalase activity was measured using the stopped-flow set-up, which was configured to measure absorbance decay at 240 nm and at 37° C.

[6] = test system: Rhodopirellula baltica RbMPO, wild type, SEQ ID NO: 1; settings: for kcatapp/KMappNaSCN (NaBr range) / kss/[Cl^−] (k2): 79 μM H2O2; for kss/[Cl^−] (k2): NaCl range
Description: (§6) Initial rate measurements under steady state conditions were performed with a BioLogic SFM400 stopped-flow by using a single-mixing mode and an Xe/Hg lamp and a TC100/10 cell. […] At least five 120 s shots were monitored for each value of the substrate range with the following sample rates: 20 μs, 20 ms, 20 ms with 2000 points per period. Slopes were calculated from the average of the shorts for each concentration and kss (s^−1) were determined from the slopes using the following formula:
(§7) The collected data were analysed with Origin software, then saturation curves for each substrate were fitted either by non-linear regression with or without inhibition by excess of substrate (Eq. 1 and 2) with [S]the substrate of interest, or by linear regression (Eq. 3) with a the slope and b the y-intercept.
(§8) The stopped-flow was used to define the steady-state kinetic parameters of RbMPOs. […] From the averages of the curves obtained for each shot, the slopes in Abs.s^−1 were calculated and then converted into kss by the following relation:

[7] = test system: Rhodopirellula baltica RbMPO variant H407A (of SEQ ID NO: 1); settings: read-out: KM H2O2; H407A 1 μM; H2O2 range, 500 mM NaCl, 10 μM APF, 37° C., pH7.5
[8] = test system: Rhodopirellula baltica RbMPO variant Q199A (of SEQ ID NO: 1); settings: Q199A 1 μM, H2O2 range, 500 mM NaCl, 10 μM APF, 37° C., pH7.5
[9] = test system: Rhodopirellula baltica RbMPO variant N317M (of SEQ ID NO: 1)
Description: as §6, §7, §8

[10] = test system: Rhodopirellula baltica RbMPO variant E316A (of SEQ ID NO: 1)
Description: as §6, §7, §8

[11] = test system: Rhodopirellula baltica RbMPO variant D202A, E316A (of SEQ ID NO: 1); remark: listed apart in the source
Description: as §6, §7
(§9) From the averages of the curves obtained for each shot, the slopes in Abs.s^−1 were calculated and then converted into kss by the following relation:

[12] = test system: Rhodopirellula baltica RbMPO variant H203A (of SEQ ID NO: 1)
Description: as §6, §7, §9

[13] = test system: Rhodopirellula baltica RbMPO variant Q199A (of SEQ ID NO: 1)
Description: as §6, §7, §8

[14] = test system: Rhodopirellula baltica RbMPO variant D202A (of SEQ ID NO: 1); settings: pH 7.5
Description: as §6, §7, §8

[15] = test system: Rhodopirellula baltica RbMPO variant H407A (of SEQ ID NO: 1)
Description: as §6, §7, §9

[16] = test system: Rhodopirellula baltica RbMPO variant D202A (of SEQ ID NO: 1); assay: Heme reconstitution (apo to holo) by tryptophan fluorescence quenching; assay type: binding; settings: D202A 1 μM; 25° C., pH7.5
Description: (§4) Tryptophan fluorescence quenching and recovery can be used to monitor the protein confirmation changes from an “apo” to an “holo” form upon addition of its coenzyme (herein heme).
(§5) The Trp fluorescence quenching experiment was performed in a spectrofluorometric FP8300 with a temperature-controlled stirred-cell (25° C.). […] Sample dilutions were performed in a 50 mM pH7.5 sodium phosphate buffer.

[17] = biological target: Rhodopirellula baltica RbMPO variant D202A, E316A (of SEQ ID NO: 1); assay: as above; assay type: binding; settings: E316A 1 μM, 25° C., pH7.5
Description: as §4, §5

[18] = test system: Rhodopirellula baltica RbMPO variant E316A (of SEQ ID NO: 1); assay: as above; assay type: binding; settings: E316A 1 μM; 25° C., pH7.5
Description: as §4, §5

[19] = test system: Rhodopirellula baltica RbMPO variant H203A (of SEQ ID NO: 1); assay: as above; assay type: binding; settings: H203A 1 μM; 25° C., pH7.5
Description: as §4, §5

[20] = test system: Rhodopirellula baltica RbMPO variant H407A (of SEQ ID NO: 1); assay: as above; assay type: binding; settings: H407A 1 μM; 25° C., pH7.5
Description: as §4, §5

[21] = test system: Rhodopirellula baltica RbMPO variant N317M (of SEQ ID NO: 1); assay: as above; assay type: binding; settings: N317M 1 μM; 25° C., pH7.5
Description: as §4, §5

[22] = test system: Rhodopirellula baltica RbMPO variant Q199A (of SEQ ID NO: 1); assay: as above; assay type: binding; settings: Q199A 1 μM; 25° C., pH7.5
Description: as §4, §5

[23] = test system: Rhodopirellula baltica RbMPO, wild type, SEQ ID NO: 1; assay: as above; assay type: binding; settings: wt RbMPO 1 μM; 25° C., pH7.5
Description: as §4, §5

[24] = H2O2, wt RbMPO 1.78 μM, 37° C., pH7.5
[25] = wt, 300 nM enzyme, 79 μM H2O2, 37° C., pH 7.5

SMILES: CCn1c(=NN=c2sc3cc(S(=O)(=O)O)ccc3n2CC)sc2cc(S(=O)(=O)O)ccc21 [ABTS, 2,2′-azino-bis(3-ethylbenzothiazoline-6-sulfonic acid)]
k2 (peroxidase, ABTS) [1]: 10620 ± 1510 M⁻¹ s⁻¹

SMILES: OO [H2O2, hydrogen peroxide]
Kd [2, 24]: 0.0569 ± 0.0201 mM
kobsmax (compound I formation) [2, 24]: 57.09 ± 8.60 s⁻¹
Ki ([2]; read-out: Ki (compound I formation, text)): 10.9 mM
Ki ([2]; wt RbMPO 1.78 μM, 37° C., pH7.5, read-out: Ki (compound I formation)): 10.9 ± 3 mM
Km ([3]; read-out: KM H2O2, E316A 1 μM, H2O2 range, 500 mM NaCl, 10 μM APF, 37° C., pH7.5): 220 ± 60 µM
Ki ([3]; read-out: Ki H2O2, E316A 1 μM, H2O2 range, 500 mM NaCl, 10 μM APF, 37° C., pH7.5): 96.3 ± 31.9 mM
Km ([4]; read-out: KM H2O2): 320 ± 90 µM
Ki ([4]; read-out: Ki H2O2): 48.1 ± 15.4 mM
kcat (catalase, H2O2) ([5]; pH 7, 2 μM wt RbMPO): 1.62 ± 0.86 s⁻¹
kcat (catalase, H2O2) ([5]; pH 7.5, 2 μM wt RbMPO): 56.64 ± 20.62 s⁻¹
Km ([5]; pH 7, 2 μM wt RbMPO): 40 ± 40 µM
Km ([5]; pH 7.5, 2 μM wt RbMPO): 170 ± 110 µM
Ki ([5]; pH 7, 2 μM wt RbMPO): 0.54 ± 0.57 mM
Ki ([5]; pH 7.5, 2 μM wt RbMPO): 1.07 ± 0.7 mM
kcatapp (H2O2) ([6]; H2O2 range, Br 100 mM, 267 nM wt RbMPO): 113.72 ± 72.11 s⁻¹
kcatapp (H2O2) ([6]; H2O2 range, SCN 5 mM, 267 nM wt RbMPO): 203.24 ± 45.46 s⁻¹
Km ([6]; read-out: KMapp (H2O2), H2O2 range, Br 100 mM, 267 nM wt RbMPO): 230 ± 210 µM
Km ([6]; read-out: KMapp (H2O2), H2O2 range, SCN 5 mM, 267 nM wt RbMPO): 120 ± 40 µM
Km [7]: 270 ± 90 µM
Km ([8]; read-out: KM H2O2): 490 ± 150 µM
Ki ([8]; read-out: Ki H2O2): 18.3 ± 5.34 mM

Vreturn (Sreturn/[enzyme]) ([2]; 37° C., pH7.5): 16.66 ± 0.65 s⁻¹
SMILES: I [I^−]
kreturn max (return to native state) ([2]; 37° C., pH7.5): 31.65 ± 1.23 µM/s

SMILES: [Br-].[Na+] [NaBr]
Vreturn (Sreturn/[enzyme]) ([2]; 37° C., pH7.5): 11.11 ± 0.57 s⁻¹
kreturn max (return to native state) ([2]; 37° C., pH7.5): 21.11 ± 1.09 µM/s
kreturn/K1/2 (return to native state) ([2]; 37° C., pH7.5): 607.77 ± 161.51 M⁻¹ s⁻¹
Km ([6]; read-out: KMapp (NaBr), wt, 300 nM enzyme, 79 μM H2O2, 37° C., pH 7.5): 133000 ± 32800 µM
kcatapp (NaBr) [6, 25]: 76.33 ± 5.12 s⁻¹
kcatapp/KMappNaSCN (NaBr range) ([6]; wt, 300 nM enzyme): 576.86 ± 172.22 M⁻¹ s⁻¹
kcatapp/KMappNaSCN (NaBr range) ([6]; wt, 300 nM enzyme, listed as Br^−): 576.96 ± 172.22 M⁻¹ s⁻¹
kss/[SCN^−] (NaBr range) [9]: 2.22 ± 1.20 M⁻¹ s⁻¹
activity (NaBr range) [10]: No activity
activity (NaBr range) [11]: No activity
kss/[SCN^−] (NaBr range) [12]: 73.94 ± 15.07 M⁻¹ s⁻¹
kss/[SCN^−] (NaBr range) [13]: 78.19 ± 22.00 M⁻¹ s⁻¹

SMILES: [Cl-].[Na+] [NaCl]
Vreturn (Sreturn/[enzyme]) ([2]; 37° C., pH7.5): 1.37 ± 0.19 s⁻¹
kreturn max (return to native state) ([2]; 37° C., pH7.5): 2.61 ± 0.37 µM/s
kreturn/K1/2 (return to native state) ([2]; 37° C., pH7.5): 5169 ± 4872 M⁻¹ s⁻¹
kss/[Cl^−] (k2) ([6]; wt, 300 nM enzyme): 5.46 ± 0.67 M⁻¹ s⁻¹
kss/[Cl^−] (k2) ([6]; wt, 300 nM enzyme, listed as Cl^−): 4.48 ± 0.64 M⁻¹ s⁻¹

SMILES: N#C[S-].[Na+] [NaSCN]
Vreturn (Sreturn/[enzyme]) ([2]; 37° C., pH7.5): 13.65 ± 0.51 s⁻¹
kreturn max (return to native state) ([2]; 37° C., pH7.5): 25.94 ± 0.97 µM/s
Km ([6]; read-out: KMapp (NaSCN), wt, 300 nM enzyme, 79 μM H2O2, 37° C., pH 7.5): 510 ± 80 µM
kcatapp (NaSCN) [6, 25]: 56.90 ± 6.92 s⁻¹
k2 (NaSCN) ([9]; pH 7.5): 1074 ± 53 M⁻¹ s⁻¹
kcatapp (NaSCN) [14]: 83.54 ± 12.04 s⁻¹
Km ([14]; read-out: KMapp (NaSCN)): 980 ± 310 µM
activity in presence of SCN [15]: not active
k2 (NaSCN) ([10]; pH 7.5): 1936 ± 374 M⁻¹ s⁻¹
activity (NaSCN range) [13]: No activity

SMILES: C=CC1=C(C)c2cc3[nH]c(cc4nc(cc5[nH]c(cc1n2)c(C)c5CCC(=O)O)C(CCC(=O)O)=C4C)c(C)c3C=C.[Fe+3] [heme]
k2 (heme reconstitution) [16]: 302+23.4 M−1 · s−1
Kd [17]: 0.0109 ± 0.00614 mM
Kobsmax (heme reconstitution) [17]: 0.28 ± 0.06 s⁻¹
k2 (heme reconstitution) [18]: 418 ± 34 M⁻¹ s⁻¹
k2 (heme reconstitution) [19]: 1840 ± 167 M⁻¹ s⁻¹
k2 (heme reconstitution) [20]: 1320 ± 18.9 M⁻¹ s⁻¹
k2 (heme reconstitution) [21]: 470.2 ± 57.8 M⁻¹ s⁻¹ and 472.2 ± 57.8 M⁻¹ s⁻¹
k2 (heme reconstitution) [22]: 1720 ± 133 M⁻¹ s⁻¹
k2 (heme reconstitution) [23]: 1430 ± 74.4 M⁻¹ s⁻¹
